Assay results: patent US9708314B2, “Heterocyclic amide compound” (NISSAN CHEMICAL INDUSTRIES, LTD., priority 2013, dated 2017)

Experiments:
Format in all cases: in vivo
[1] = tested on: directly sowed Oryza sativa; assay: Test Example 4: effect on crop by application to foliage (diluvial soil, plastic box); conditions: application to foliage, 320 g/ha
Summary of the method: (§1)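 Seeds sown in sterilized diluvial soil, covered ~1.5 cm, grown 14 days in greenhouse at 25° C. to 30° C. Emulsion formulation diluted in water to set rate (g/ha) and sprayed onto stems and leaves. Effect scored visually 3 weeks later on 0–5 scale (5 = ≥90% herbicidal ratio, 0 = ≤5%).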

[2] = tested on: Beta vulgaris ssp. vulgaris; assay: as above; conditions: application to foliage, 320 g/ha
Summary of the method: as §1

Brassica campestris L. = assay: as above; conditions: application to foliage, 320 g/ha
Summary of the method: as §1

Zea mays = assay: as above; conditions: application to foliage, 320 g/ha
Summary of the method: as §1

Glycine max = assay: as above; conditions: application to foliage, 320 g/ha
Summary of the method: as §1

Triticum aestivum = assay: as above; conditions: application to foliage, 320 g/ha
Summary of the method: as §1

Stellaria media = assay: Test Example 4: herbicidal effect by application to foliage (diluvial soil, plastic box); conditions: application to foliage, 320 g/ha
Summary of the method: as §1

Lolium multiflorum Lam. = assay: as above; conditions: application to foliage, 320 g/ha
Summary of the method: as §1

Setaria viridis = assay: as above; conditions: application to foliage, 320 g/ha
Summary of the method: as §1

Abutilon theophrasti = assay: as above; conditions: application to foliage, 320 g/ha
Summary of the method: as §1

Digitaria ciliaris = assay: as above; conditions: application to foliage, 320 g/ha
Summary of the method: as §1

Chenopodium album = assay: as above; conditions: application to foliage, 320 g/ha
Summary of the method: as §1

Amaranthus retroflexus = assay: as above; conditions: application to foliage, 320 g/ha
Summary of the method: as §1

Galium spurium = assay: as above; conditions: application to foliage, 320 g/ha
Summary of the method: as §1

Apera spica-venti. = assay: as above; conditions: application to foliage, 320 g/ha
Summary of the method: as §1

[3] = tested on: Echinochloa crus-galli var. crus-galli; assay: as above; conditions: application to foliage, 320 g/ha
Summary of the method: as §1

Avena fatua = assay: as above; conditions: application to foliage, 320 g/ha
Summary of the method: as §1

Alopecurus myosuroides = assay: as above; conditions: application to foliage, 320 g/ha
Summary of the method: as §1

Veronica persica = assay: as above; conditions: application to foliage, 320 g/ha
Summary of the method: as §1

[4] = tested on: Echinochloa oryzacola Vasing.; assay: Test Example 2: herbicidal activity, application during weed generation in submerged conditions; conditions: Eighteenth Table; application herbicide amount 320 g/ha
Summary of the method: (§2)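 Scored three weeks post-application on a 0–5 scale (5: ≥90% herbicidal ratio, almost withered; 0: ≤5%). Plants raised from mixed-sown seed in submerged alluvial soil (4 cm water), 25–30 °C greenhouse; water-diluted emulsion applied onto water surface at one- to two-leaf stage, dose in g/ha.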

Monochoria vaginalis = assay: as above; conditions: Eighteenth Table; application herbicide amount 320 g/ha
Summary of the method: as §2

Scirpus juncoides = assay: as above; conditions: Eighteenth Table; application herbicide amount 320 g/ha
Summary of the method: as §2

C#CCSc1nnc2c(C(=O)Nc3nnnn3C)ccc(C(F)(F)F)n12 [2-103]
effect on crop, d (directly sowed Oryza sativa) [1]: 4 (Herbicidal ratio of 70% or more and less than 90%) | effect on crop, f (Beta vulgaris ssp. vulgaris) [2]: 5 (Herbicidal ratio of 90% or more (almost completely withered)) | effect on crop, g (Brassica campestris L.) (Brassica campestris L.): 3 (Herbicidal ratio of 40% or more and less than 70%) | effect on crop, b (Zea mays) (Zea mays): 2 (Herbicidal ratio of 20% or more and less than 40%) | effect on crop, c (Glycine max) (Glycine max): 0 (Herbicidal ratio of 5% or less (almost no effect)) | effect on crop, e (Triticum aestivum) (Triticum aestivum): 0 (Herbicidal ratio of 5% or less (almost no effect)) | herbicidal effect, P (Stellaria media) (Stellaria media): 5 (Herbicidal ratio of 90% or more (almost completely withered)) | herbicidal effect, K (Lolium multiflorum Lam.) (Lolium multiflorum Lam.): 1 (Herbicidal ratio of 5% or more and less than 20%) | herbicidal effect, G (Setaria viridis) (Setaria viridis): 3 (Herbicidal ratio of 40% or more and less than 70%) | herbicidal effect, M (Abutilon theophrasti) (Abutilon theophrasti): 4 (Herbicidal ratio of 70% or more and less than 90%) | herbicidal effect, F (Digitaria ciliaris) (Digitaria ciliaris): 4 (Herbicidal ratio of 70% or more and less than 90%) | herbicidal effect, O (Chenopodium album) (Chenopodium album): 5 (Herbicidal ratio of 90% or more (almost completely withered)) | herbicidal effect, N (Amaranthus retroflexus) (Amaranthus retroflexus): 5 (Herbicidal ratio of 90% or more (almost completely withered)) | herbicidal effect, Q (Galium spurium) (Galium spurium): 4 (Herbicidal ratio of 70% or more and less than 90%) | herbicidal effect, L (Apera spica-venti.) (Apera spica-venti.): 2 (Herbicidal ratio of 20% or more and less than 40%) | herbicidal effect, H (Echinochloa crus-galli var. crus-galli) [3]: 5 (Herbicidal ratio of 90% or more (almost completely withered)) | herbicidal effect, I (Avena fatua) (Avena fatua): 1 (Herbicidal ratio of 5% or more and less than 20%) | herbicidal effect, J (Alopecurus myosuroides) (Alopecurus myosuroides): 0 (Herbicidal ratio of 5% or less (almost no effect)) | herbicidal effect, R (Veronica persica) (Veronica persica): 4 (Herbicidal ratio of 70% or more and less than 90%) | A (Echinochloa oryzicola Vasing.) herbicidal ratio grade [4]: 4 (Herbicidal ratio of 70% or more and less than 90%) | C (Monochoria vaginalis) herbicidal ratio grade (Monochoria vaginalis): 4 (Herbicidal ratio of 70% or more and less than 90%) | B (Scirpus juncoides) herbicidal ratio grade (Scirpus juncoides): 3 (Herbicidal ratio of 40% or more and less than 70%)

CC#Cc1nnc2c(C(=O)Nc3nnnn3C)ccc(C(F)(F)F)n12 [2-106]
effect on crop, d (directly sowed Oryza sativa) [1]: 4 (Herbicidal ratio of 70% or more and less than 90%) | effect on crop, f (Beta vulgaris ssp. vulgaris) [2]: 5 (Herbicidal ratio of 90% or more (almost completely withered)) | effect on crop, g (Brassica campestris L.) (Brassica campestris L.): 3 (Herbicidal ratio of 40% or more and less than 70%) | effect on crop, b (Zea mays) (Zea mays): 0 (Herbicidal ratio of 5% or less (almost no effect)) | effect on crop, c (Glycine max) (Glycine max): 0 (Herbicidal ratio of 5% or less (almost no effect)) | effect on crop, e (Triticum aestivum) (Triticum aestivum): 0 (Herbicidal ratio of 5% or less (almost no effect)) | herbicidal effect, P (Stellaria media) (Stellaria media): 4 (Herbicidal ratio of 70% or more and less than 90%) | herbicidal effect, K (Lolium multiflorum Lam.) (Lolium multiflorum Lam.): 0 (Herbicidal ratio of 5% or less (almost no effect)) | herbicidal effect, G (Setaria viridis) (Setaria viridis): 1 (Herbicidal ratio of 5% or more and less than 20%) | herbicidal effect, M (Abutilon theophrasti) (Abutilon theophrasti): 5 (Herbicidal ratio of 90% or more (almost completely withered)) | herbicidal effect, F (Digitaria ciliaris) (Digitaria ciliaris): 3 (Herbicidal ratio of 40% or more and less than 70%) | herbicidal effect, O (Chenopodium album) (Chenopodium album): 5 (Herbicidal ratio of 90% or more (almost completely withered)) | herbicidal effect, N (Amaranthus retroflexus) (Amaranthus retroflexus): 4 (Herbicidal ratio of 70% or more and less than 90%) | herbicidal effect, Q (Galium spurium) (Galium spurium): 3 (Herbicidal ratio of 40% or more and less than 70%) | herbicidal effect, L (Apera spica-venti.) (Apera spica-venti.): 0 (Herbicidal ratio of 5% or less (almost no effect)) | herbicidal effect, H (Echinochloa crus-galli var. crus-galli) [3]: 3 (Herbicidal ratio of 40% or more and less than 70%) | herbicidal effect, I (Avena fatua) (Avena fatua): 1 (Herbicidal ratio of 5% or more and less than 20%) | herbicidal effect, J (Alopecurus myosuroides) (Alopecurus myosuroides): 0 (Herbicidal ratio of 5% or less (almost no effect)) | herbicidal effect, R (Veronica persica) (Veronica persica): 3 (Herbicidal ratio of 40% or more and less than 70%) | A (Echinochloa oryzicola Vasing.) herbicidal ratio grade [4]: 1 (Herbicidal ratio of 5% or more and less than 20%) | C (Monochoria vaginalis) herbicidal ratio grade (Monochoria vaginalis): 3 (Herbicidal ratio of 40% or more and less than 70%) | B (Scirpus juncoides) herbicidal ratio grade (Scirpus juncoides): 2 (Herbicidal ratio of 20% or more and less than 40%)

CC(=O)OCc1nnc2c(C(=O)Nc3nnnn3C)ccc(C(F)(F)F)n12 [2-107]
effect on crop, d (directly sowed Oryza sativa) [1]: 5 (Herbicidal ratio of 90% or more (almost completely withered)) | effect on crop, f (Beta vulgaris ssp. vulgaris) [2]: 5 (Herbicidal ratio of 90% or more (almost completely withered)) | effect on crop, g (Brassica campestris L.) (Brassica campestris L.): 4 (Herbicidal ratio of 70% or more and less than 90%) | effect on crop, b (Zea mays) (Zea mays): 3 (Herbicidal ratio of 40% or more and less than 70%) | effect on crop, c (Glycine max) (Glycine max): 0 (Herbicidal ratio of 5% or less (almost no effect)) | effect on crop, e (Triticum aestivum) (Triticum aestivum): 0 (Herbicidal ratio of 5% or less (almost no effect)) | herbicidal effect, P (Stellaria media) (Stellaria media): 5 (Herbicidal ratio of 90% or more (almost completely withered)) | herbicidal effect, K (Lolium multiflorum Lam.) (Lolium multiflorum Lam.): 0 (Herbicidal ratio of 5% or less (almost no effect)) | herbicidal effect, G (Setaria viridis) (Setaria viridis): 3 (Herbicidal ratio of 40% or more and less than 70%) | herbicidal effect, M (Abutilon theophrasti) (Abutilon theophrasti): 5 (Herbicidal ratio of 90% or more (almost completely withered)) | herbicidal effect, F (Digitaria ciliaris) (Digitaria ciliaris): 5 (Herbicidal ratio of 90% or more (almost completely withered)) | herbicidal effect, O (Chenopodium album) (Chenopodium album): 5 (Herbicidal ratio of 90% or more (almost completely withered)) | herbicidal effect, N (Amaranthus retroflexus) (Amaranthus retroflexus): 5 (Herbicidal ratio of 90% or more (almost completely withered)) | herbicidal effect, Q (Galium spurium) (Galium spurium): 4 (Herbicidal ratio of 70% or more and less than 90%) | herbicidal effect, L (Apera spica-venti.) (Apera spica-venti.): 0 (Herbicidal ratio of 5% or less (almost no effect)) | herbicidal effect, H (Echinochloa crus-galli var. crus-galli) [3]: 5 (Herbicidal ratio of 90% or more (almost completely withered)) | herbicidal effect, I (Avena fatua) (Avena fatua): 1 (Herbicidal ratio of 5% or more and less than 20%) | herbicidal effect, J (Alopecurus myosuroides) (Alopecurus myosuroides): 0 (Herbicidal ratio of 5% or less (almost no effect)) | herbicidal effect, R (Veronica persica) (Veronica persica): 5 (Herbicidal ratio of 90% or more (almost completely withered)) | A (Echinochloa oryzicola Vasing.) herbicidal ratio grade [4]: 2 (Herbicidal ratio of 20% or more and less than 40%) | C (Monochoria vaginalis) herbicidal ratio grade (Monochoria vaginalis): 2 (Herbicidal ratio of 20% or more and less than 40%) | B (Scirpus juncoides) herbicidal ratio grade (Scirpus juncoides): 1 (Herbicidal ratio of 5% or more and less than 20%)

Cn1nnnc1NC(=O)c1ccc(C(F)(F)F)n2c(C3(C)CC3(Cl)Cl)nnc12 (stereo not shown) [2-110]
effect on crop, d (directly sowed Oryza sativa) [1]: 4 (Herbicidal ratio of 70% or more and less than 90%) | effect on crop, f (Beta vulgaris ssp. vulgaris) [2]: 5 (Herbicidal ratio of 90% or more (almost completely withered)) | effect on crop, g (Brassica campestris L.) (Brassica campestris L.): 4 (Herbicidal ratio of 70% or more and less than 90%) | effect on crop, b (Zea mays) (Zea mays): 4 (Herbicidal ratio of 70% or more and less than 90%) | effect on crop, c (Glycine max) (Glycine max): 0 (Herbicidal ratio of 5% or less (almost no effect)) | effect on crop, e (Triticum aestivum) (Triticum aestivum): 3 (Herbicidal ratio of 40% or more and less than 70%) | herbicidal effect, P (Stellaria media) (Stellaria media): 5 (Herbicidal ratio of 90% or more (almost completely withered)) | herbicidal effect, K (Lolium multiflorum Lam.) (Lolium multiflorum Lam.): 3 (Herbicidal ratio of 40% or more and less than 70%) | herbicidal effect, G (Setaria viridis) (Setaria viridis): 4 (Herbicidal ratio of 70% or more and less than 90%) | herbicidal effect, M (Abutilon theophrasti) (Abutilon theophrasti): 5 (Herbicidal ratio of 90% or more (almost completely withered)) | herbicidal effect, F (Digitaria ciliaris) (Digitaria ciliaris): 5 (Herbicidal ratio of 90% or more (almost completely withered)) | herbicidal effect, O (Chenopodium album) (Chenopodium album): 5 (Herbicidal ratio of 90% or more (almost completely withered)) | herbicidal effect, N (Amaranthus retroflexus) (Amaranthus retroflexus): 5 (Herbicidal ratio of 90% or more (almost completely withered)) | herbicidal effect, Q (Galium spurium) (Galium spurium): 5 (Herbicidal ratio of 90% or more (almost completely withered)) | herbicidal effect, L (Apera spica-venti.) (Apera spica-venti.): 3 (Herbicidal ratio of 40% or more and less than 70%) | herbicidal effect, H (Echinochloa crus-galli var. crus-galli) [3]: 5 (Herbicidal ratio of 90% or more (almost completely withered)) | herbicidal effect, I (Avena fatua) (Avena fatua): 3 (Herbicidal ratio of 40% or more and less than 70%) | herbicidal effect, J (Alopecurus myosuroides) (Alopecurus myosuroides): 2 (Herbicidal ratio of 20% or more and less than 40%) | herbicidal effect, R (Veronica persica) (Veronica persica): 5 (Herbicidal ratio of 90% or more (almost completely withered)) | A (Echinochloa oryzicola Vasing.) herbicidal ratio grade [4]: 5 (Herbicidal ratio of 90% or more (almost completely withered)) | C (Monochoria vaginalis) herbicidal ratio grade (Monochoria vaginalis): 4 (Herbicidal ratio of 70% or more and less than 90%) | B (Scirpus juncoides) herbicidal ratio grade (Scirpus juncoides): 5 (Herbicidal ratio of 90% or more (almost completely withered))
